# Measured values taken from patent publication US20200339548A1, “PYRIMIDINE DERIVATIVES AND THEIR USE FOR THE TREATMENT OF CANCER” (Adorx Therapeutics Limited, priority 2017, published 2020).
# Where two headings read alike, the source gives them in different places.
# How the values were obtained:
# Adenosine A2a receptor = target: T1, Adenosine A2a receptor (Homo sapiens, UniProt P29274); assay: Adenosine receptor TR-FRET binding assay, A2a; conditions: displacement of 100 nM CA200645, CHO cell membranes
# T1 construct: expressed in transfected cells; host or cells: CHO cell membranes
# T1 sequence (P29274 whole entry): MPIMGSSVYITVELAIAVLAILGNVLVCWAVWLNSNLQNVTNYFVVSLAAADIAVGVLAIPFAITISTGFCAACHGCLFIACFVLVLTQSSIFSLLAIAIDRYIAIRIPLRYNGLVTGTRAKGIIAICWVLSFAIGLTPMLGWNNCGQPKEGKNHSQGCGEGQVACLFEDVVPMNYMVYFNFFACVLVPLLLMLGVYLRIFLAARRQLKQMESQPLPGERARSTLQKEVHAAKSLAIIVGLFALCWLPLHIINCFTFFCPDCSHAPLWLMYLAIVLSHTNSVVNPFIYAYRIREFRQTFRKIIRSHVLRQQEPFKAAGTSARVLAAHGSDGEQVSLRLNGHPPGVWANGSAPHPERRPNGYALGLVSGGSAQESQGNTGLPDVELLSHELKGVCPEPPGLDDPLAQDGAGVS
# Outline: (§1)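 Competition TR-FRET binding in CHO cell membranes expressing terbium-labelled human receptors, displacing fluorescent XAC (CA200645; 30 nM for A2b, 100 nM for A1, A2a, A3); 2 h at room temperature with saponin buffer, 1% DMSO. 665/620 nm ratio; non-specific with 10 μM XAC; Ki by Cheng–Prusoff from IC50.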
# [1] = test system: CD8+T Cells in Human Whole Blood; assay: Measurement of pCREB in CD8+ T cells; assay type: cell-based; conditions: T-cell, 1 h; heparinised human whole blood, rolipram, 3 μM NECA, 60 min, FACS
# Description: Heparinised human whole blood was pre-incubated at 37° C. with serial dilutions of A2a antagonists for 20 min. and the phosphodiesterase inhibitor rolipram to amplify the pCREB response. The adenosine receptor agonist NECA is then added at a final concentration of 3 μM and following a 60 min incubation the blood is fixed and red blood cells lysed. White blood cells are isolated, permeabilized and stained with directly conjugated fluorescent antibodies to phospho-CREB (Alexa Fluor 488) and CD8 (Alexa Fluor 647) and the level of phospho-CREB in CD8+ T cells is measured by FACS using a BD Accuri C6 Flow Cytometer.
# Adenosine A2b receptor = target: T2, Adenosine A2b receptor (Homo sapiens, UniProt P29275); assay: Adenosine receptor TR-FRET binding assay, A2b; conditions: Table 9, further testing; displacement of 30 nM CA200645, CHO cell membranes
# T2 construct: expressed in transfected cells; host or cells: CHO cell membranes
# T2 sequence (P29275 1-332): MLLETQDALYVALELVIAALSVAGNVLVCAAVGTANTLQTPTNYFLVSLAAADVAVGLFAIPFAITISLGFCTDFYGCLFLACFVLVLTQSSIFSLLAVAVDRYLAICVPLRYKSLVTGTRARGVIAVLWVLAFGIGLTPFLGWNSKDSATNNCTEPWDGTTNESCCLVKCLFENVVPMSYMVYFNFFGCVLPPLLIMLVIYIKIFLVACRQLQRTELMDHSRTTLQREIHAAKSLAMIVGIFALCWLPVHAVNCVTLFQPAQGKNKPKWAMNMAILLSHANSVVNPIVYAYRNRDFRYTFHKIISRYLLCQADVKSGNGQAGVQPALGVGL
# Outline: as §1
# Adenosine A3 receptor = target: T3, Adenosine A3 receptor (Homo sapiens, UniProt P0DMS8); assay: Adenosine receptor TR-FRET binding assay, A3
# T3 construct: expressed in transfected cells; host or cells: CHO cell membranes
# T3 sequence (P0DMS8 1-318): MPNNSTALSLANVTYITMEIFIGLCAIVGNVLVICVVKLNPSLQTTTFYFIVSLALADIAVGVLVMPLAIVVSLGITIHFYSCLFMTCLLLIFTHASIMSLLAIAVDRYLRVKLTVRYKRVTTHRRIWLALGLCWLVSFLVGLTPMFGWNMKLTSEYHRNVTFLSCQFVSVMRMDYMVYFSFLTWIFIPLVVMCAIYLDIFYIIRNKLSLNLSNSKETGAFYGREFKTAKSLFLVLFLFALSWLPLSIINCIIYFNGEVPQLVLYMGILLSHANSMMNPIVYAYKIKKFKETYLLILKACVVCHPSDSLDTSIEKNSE
# Outline: as §1
# Human PBMCs = assay: CD3/CD28 stimulated IL-2 release NECA reversal assay; assay type: cell-based
# Description: Blood is drawn from healthy volunteers using sodium citrate as the anticoagulant (0.3% final concentration). […] 50 μl diluted compound mix is added to the cells, to obtain final concentrations of 1 ug/ml CD28 antibody, 1 uM NECA and 0.003-10 μM adenosine receptor antagonist. Assay plates are incubated for 24 hours at 37° C. in a humidified incubator.
# Human Whole Blood = assay: LPS stimulated TNF-alpha release NECA reversal assay; assay type: cell-based; conditions: 5 hours
# Description: Blood is drawn from healthy volunteers using sodium citrate (0.3% final concentration) or heparin (19.5 U/ml) as the anticoagulant. A 15 minute incubation may be given with adenosine deaminase (2 u/ml) prior to plating the blood into assay plates, as indicated. 20 μl diluted compound mix containing LPS, NECA and adenosine receptor antagonist diluted in RPMI medium is added to U-bottom cell culture plates. 180 μl anticoagulated blood is added. Assay plates are incubated for 5 hours at 37° C. in a humidified incubator. Plasma obtained by centrifugation at 2000 rpm/10 mins is tested for TNF alpha levels using the human TNF alpha Tissue Culture Kit (Meso Scale Discovery). For bar charts, data is expressed as raw counts from a Mesoscale Sector Imager 6000.
# Adenosine A1 receptor = target: T4, Adenosine A1 receptor (Homo sapiens, UniProt P30542); assay: Adenosine receptor TR-FRET binding assay, A1; conditions: Table 9, further testing; displacement of 100 nM CA200645, CHO cell membranes
# T4 construct: expressed in transfected cells; host or cells: CHO cell membranes
# T4 sequence (P30542 1-326): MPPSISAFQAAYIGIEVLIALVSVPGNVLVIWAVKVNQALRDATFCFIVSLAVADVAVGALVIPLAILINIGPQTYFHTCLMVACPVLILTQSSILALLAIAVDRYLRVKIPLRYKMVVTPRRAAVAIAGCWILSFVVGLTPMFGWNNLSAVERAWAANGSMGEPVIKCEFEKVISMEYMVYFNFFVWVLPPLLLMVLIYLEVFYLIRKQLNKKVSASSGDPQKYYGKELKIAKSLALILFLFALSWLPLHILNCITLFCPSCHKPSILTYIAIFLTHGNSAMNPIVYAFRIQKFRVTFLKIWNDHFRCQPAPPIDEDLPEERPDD
# Outline: as §1
# cancer = conditions: monotherapy and in combination with atezolizumab, preliminary data, cited from earlier work
# [2] = Table 9, further testing, displacement of 100 nM CA200645, CHO cell membranes, read-out: A3 Ki
# [3] = Homo sapiens, PBMC, read-out: IL-2 release NECA reversal IC50 (nM), 1 uM NECA, 24 hours
Structure (SMILES),"Ki (Adenosine A2a receptor; Table 9, further testing) [nM]",IC50 [1] [nM],Ki (Adenosine A2b receptor) [nM],Ki (Adenosine A3 receptor; [2]) [nM],IC50 (Human Whole Blood) [nM],Ki (Adenosine A1 receptor) [nM],"Ki (Adenosine A2a receptor; Table 8, Cheng and Prusoff) [nM]",IC50 (Human PBMCs; [3]) [nM],CD8+T infiltration into tumour tissue (cancer; early indications),tumour size (cancer; early indications),tolerability (cancer),Ki (Adenosine A3 receptor) [nM],"IC50 (Human PBMCs; read-out: IL-2 release NECA reversal IC50, 1 uM NECA, 24 hours) [nM]"
"COc1nc(-c2ccco2)nc(N)c1C(=O)NCc1c(Cl)cccc1Cl [Example 18.3, 4-Amino-N-[(2,6-dichlorophenyl)methyl]-2-(2-furyl)-6-methoxy-pyrimidine-5-carboxamide]",0.078,17,5.4,194,476,18,,5,,,,,
"Cc1cccnc1CNC(=O)c1c(N)nc(-c2ncco2)nc1OCCF [Example 25, 4-Amino-6-(2-fluoroethoxy)-N-[(3-methyl-2-pyridyl)methyl]-2-oxazol-2-yl-pyrimidine-5-carboxamide]",1.3,106,77,62,,260,,11,,,,,
Cc1ccc(-c2nc(N)nc3c2nnn3Cc2cccc(CO[C@H]3CCOC3)n2)o1 [CPI-444],,,,,,,,,enhancing CD8^+T infiltration into tumour tissue,reducing tumour size,well tolerated,,
"COc1ccccc1CNC(=O)c1cnc(-c2cccc(F)c2)nc1N [Example 10.8, 4-Amino-2-(3-fluorophenyl)-N-[(2-methoxyphenyl)methyl]pyrimidine-5-carboxamide]",27,,1750,230,,143,27,2000,,,,,
"COc1ccccc1CNC(=O)c1cnc(-c2ccco2)nc1N [Example 5.20, 4-Amino-2-(2-furyl)-N-[(2-methoxyphenyl)methyl]pyrimidine-5-carboxamide]",0.95,,1190,757,,426,1.1,122,,,,,
"Nc1nc(-c2ccco2)ncc1C(=O)NCc1ncccc1Cl [Example 5.21, 4-Amino-N-[(3-chloro-2-pyridyl)methyl]-2-(2-furyl)pyrimidine-5-carboxamide]",1.5,,1160,,,1850,1.5,123,,,,1190,
"Nc1nc(-c2cccc(F)c2)ncc1C(=O)NCc1c(Cl)cccc1Cl [Example 10.6, 4-Amino-N-[(2,6-dichlorophenyl)methyl]-2-(3-fluorophenyl)pyrimidine-5-carboxamide]",32,,1310,160,,231,32,685,,,,,
"Cc1cccnc1CNC(=O)c1cnc(-c2ccco2)nc1N [Example 3, 4-Amino-2-(2-furyl)-N-[(3-methyl-2-pyridyl)methyl]pyrimidine-5-carboxamide]",3.3,1210,440,908,2290,1720,1.7,,,,,,77
"COc1nc(-c2ccco2)nc(N)c1C(=O)NCc1ncccc1C [Example 18, 4-Amino-2-(2-furyl)-6-methoxy-N-[(3-methyl-2-pyridyl)methyl]pyrimidine-5-carboxamide]",0.64,,231,201,,202,1.1,37,,,,,

# The next lines start with results.
"Ki (Adenosine A2a receptor; Table 9, further testing) [nM]",IC50 [1] [nM],Ki (Adenosine A2b receptor) [nM],Ki (Adenosine A3 receptor; [2]) [nM],IC50 (Human Whole Blood) [nM],Ki (Adenosine A1 receptor) [nM],"Ki (Adenosine A2a receptor; Table 8, Cheng and Prusoff) [nM]",Structure (SMILES),IC50 (Human PBMCs; [3]) [nM],CD8+T infiltration into tumour tissue (cancer; early indications),tumour size (cancer; early indications),tolerability (cancer),Ki (Adenosine A3 receptor) [nM],"IC50 (Human PBMCs; read-out: IL-2 release NECA reversal IC50, 1 uM NECA, 24 hours) [nM]"
1.8,,1220,11,,4.9,,"Cc1cccnc1CNC(=O)c1c(N)nc(-c2ccco2)nc1OCC(C)(C)C [Example 20.10, 4-Amino-6-(2,2-dimethylpropoxy)-2-(2-furyl)-N-[(3-methyl-2-pyridyl)methyl]pyrimidine-5-carboxamide]",62,,,,,
7,,1070,2220,,629,,"CC(O)CCNC(=O)c1c(N)nc(-c2cccc(C#N)c2)nc1OCCF (stereo not drawn) [Example 24.6, 4-Amino-2-(3-cyanophenyl)-6-(2-fluoroethoxy)-N-(3-hydroxybutyl)pyrimidine-5-carboxamide]",207,,,,,
0.11,42,80,11,221,1.7,,"Cc1cccnc1CNC(=O)c1c(N)nc(-c2ccco2)nc1OC[C@H](C)O [Example 20.11, 4-Amino-2-(2-furyl)-6-[(2S)-2-hydroxypropoxy]-N-[(3-methyl-2-pyridyl)methyl]pyrimidine-5-carboxamide]",9,,,,,
0.099,,611,14,,9,,"Cc1cccnc1CNC(=O)c1c(N)nc(-c2ccco2)nc1OC[C@@H](C)O [Example 20.13, 4-Amino-2-(2-furyl)-6-[(2R)-2-hydroxypropoxy]-N-[(3-methyl-2-pyridyl)methyl]pyrimidine-5-carboxamide]",19,,,,,
0.11,,29,15,,6.6,,"Cc1cccnc1CNC(=O)c1c(N)nc(-c2ccco2)nc1OCCF [Example 20.7, 4-Amino-6-(2-fluoroethoxy)-2-(2-furyl)-N-[(3-methyl-2-pyridyl)methyl]pyrimidine-5-carboxamide]",14,,,,,
